Laboratory results reported in patent publication US20130195815A1, “METHOD FOR LABELING INSULIN-SECRETING PANCREATIC BETA CELLS AND OBTAINING PURIFIED INSULIN-SECRETING PANCREATIC B-CELLS AND AN INSULIN REPORTED” (NORTH CAROLINA CENTRAL UNIVERSITY, priority 2011, published 2013).

System: INS-1 cells
Assay: GSIS assay: release of PPI-mCherry reporter into conditioned media (relative fluorescence)
Format: cell-based, rat
Conditions: INS-1 cells transduced with PPI-mCherry, 2 h
Experimental: (HG—high glucose (25 mM): LG—low glucose (5.6 mM): Ex—10 nM: NF—nifedipine 10 μM, calcium channel blocker/inhibitor) (Y-axis=normalized fluorescent units—FLU).
The reporter system was tested in insulin secretion assays.
GSIS: INS-1 cells were transduced with PPI-mCherry and allowed to recover. […] Conditioned media was removed and spotted onto a membrane and relative fluorescence determined using an Odyssey CLx imager (Licor Corp).

PPI-mCherry: Genetically encoded preproinsulin-mCherry fluorescent protein reporter (SEQ ID NO: 1), delivered by pLenti vector
glucose stimulated release of the PPI-mCherry reporter (high vs low glucose): 1.7 fold
